Our source for the MIC values is ChEMBL document CHEMBL1687777, “Membrane efflux and influx modulate both multidrug resistance and virulence of Klebsiella pneumoniae in a Caenorhabditis elegans model” (2010).

Test [1] deals with Klebsiella pneumoniae. Nature of the test: Antibacterial activity against porin deficient OmpA positive Klebsiella pneumoniae KPBj1 expressing efflux system by disk agar diffusion method. It counts as functional. A general note: A growth-free zone around the sample is the usual read-out of agar diffusion tests.
Test [2] has as its system Klebsiella pneumoniae. Nature of the test: Antibacterial activity against porin, OmpA positive Klebsiella pneumoniae ATCC 138821 by disk agar diffusion method. It counts as functional.
Test [3] relates to Klebsiella pneumoniae. As to the kind of experiment: Antibacterial activity against porin deficient OmpA positive Klebsiella pneumoniae KPBj3 revertant by disk agar diffusion method. The test is classed as functional.
Test [4] concerns Klebsiella pneumoniae. As to the kind of experiment: Antibacterial activity against porin deficient OmpA positive extended-spectrum beta-lactamase producing Klebsiella pneumoniae KPBj1 revertant by disk agar diffusion method. The test is classed as functional.
In test [5] the test system is Klebsiella pneumoniae. As to the kind of experiment: Antibacterial activity against porin deficient OmpA positive Klebsiella pneumoniae KPBj5 expressing efflux system by disk agar diffusion method. It counts as functional.
The subject of test [6] is Klebsiella pneumoniae. Nature of the test: Antibacterial activity against porin deficient OmpA positive Klebsiella pneumoniae KPBj3 expressing efflux system by disk agar diffusion method. It counts as functional.
The subject of test [7] is Klebsiella pneumoniae. Nature of the test: Antibacterial activity against porin deficient OmpA positive Klebsiella pneumoniae KPBj1 revertant by disk agar diffusion method. It counts as functional.
For test [8], the system named is Klebsiella pneumoniae. Nature of the test: Antibacterial activity against porin, OmpA positive Klebsiella pneumoniae KPBj3 expressing efflux system by disk agar diffusion method. The test is classed as functional.
The test system of test [9] is Klebsiella pneumoniae. Nature of the test: microbe, parasite or virus in culture. Particulars: KPBj1.
Description: Antibacterial activity against porin deficient OmpA positive extended-spectrum beta-lactamase producing Klebsiella pneumoniae KPBj1 expressing efflux system by disk agar diffusion method
Test [10] deals with Klebsiella pneumoniae. Nature of the test: Antibacterial activity against porin, OmpA positive Klebsiella pneumoniae KPBj5 revertant by disk agar diffusion method. It counts as functional.
The subject of test [11] is Klebsiella pneumoniae. As to the kind of experiment: Antibacterial activity against porin, OmpA positive Klebsiella pneumoniae KPBj1 revertant by disk agar diffusion method. It counts as functional.
The test system of test [12] is Klebsiella pneumoniae. As to the kind of experiment: Antibacterial activity against porin, OmpA positive Klebsiella pneumoniae KPBj3 revertant by disk agar diffusion method. The test is classed as functional.
Test [13] concerns Klebsiella pneumoniae. Nature of the test: Antibacterial activity against porin, OmpA positive Klebsiella pneumoniae KPBj5 expressing efflux system by disk agar diffusion method. The test is classed as functional.
For test [14], the system named is Klebsiella pneumoniae. Nature of the test: Antibacterial activity against porin deficient OmpA positive Klebsiella pneumoniae KPBj5 revertant by disk agar diffusion method. The test is classed as functional.
Test [15] relates to Klebsiella pneumoniae. Nature of the test: Antibacterial activity against porin, OmpA positive Klebsiella pneumoniae KPBj1 expressing efflux system by disk agar diffusion method. The test is classed as functional.
Test [16] has as its system Klebsiella pneumoniae. As to the kind of experiment: Antibacterial activity against porin, OmpA positive extended-spectrum beta-lactamase producing Klebsiella pneumoniae KPBj1 revertant by disk agar diffusion method. The test is classed as functional.
In test [17] the test system is Klebsiella pneumoniae. As to the kind of experiment: Antibacterial activity against porin, OmpA positive extended-spectrum beta-lactamase producing Klebsiella pneumoniae KPBj1 by disk agar diffusion method. It counts as functional.

≈ marks a conversion by molar mass, not a printed value.

Consider `CCn1cc(C(=O)O)c(=O)c2ccc(C)nc21` [NALIDIXIC ACID], for which the MIC in the test on Klebsiella pneumoniae [1] was determined as 32 µg/mL (≈ 138 µM); in the test on Klebsiella pneumoniae [2], 4 µg/mL (≈ 17.2 µM); in the test on Klebsiella pneumoniae [3], 2 µg/mL (≈ 8.61 µM); against Klebsiella pneumoniae [4], 4 µg/mL (≈ 17.2 µM); with Klebsiella pneumoniae [5], 8 µg/mL (≈ 34.4 µM); against Klebsiella pneumoniae [6], 32 µg/mL (≈ 138 µM). Moreover, the MIC against Klebsiella pneumoniae [7] was 2 µg/mL (≈ 8.61 µM); in the test on Klebsiella pneumoniae [8], 32 µg/mL (≈ 138 µM); with Klebsiella pneumoniae [9] it was 32 µg/mL (≈ 138 µM); in the test with Klebsiella pneumoniae [10] it was 2 µg/mL (≈ 8.61 µM); against Klebsiella pneumoniae [11] it was 2 µg/mL (≈ 8.61 µM); with Klebsiella pneumoniae [12], 2 µg/mL (≈ 8.61 µM). The MIC against Klebsiella pneumoniae [13] is 8 µg/mL (≈ 34.4 µM); against Klebsiella pneumoniae [14], 2 µg/mL (≈ 8.61 µM); against Klebsiella pneumoniae [15] it was 32 µg/mL (≈ 138 µM); against Klebsiella pneumoniae [16] it was 4 µg/mL (≈ 17.2 µM); against Klebsiella pneumoniae [17], 32 µg/mL (≈ 138 µM).

`C[C@@H](O)[C@H]1C(=O)N2C(C(=O)O)=C(S[C@@H]3CN[C@H](C(=O)Nc4cccc(C(=O)O)c4)C3)[C@H](C)[C@H]12`: the MIC against Klebsiella pneumoniae [1] is 0.5 µg/mL (≈ 1.05 µM); against Klebsiella pneumoniae [2], 0.007 µg/mL (≈ 0.0147 µM); with Klebsiella pneumoniae [3], 0.25 µg/mL (≈ 0.526 µM); with Klebsiella pneumoniae [4] it was 2 µg/mL (≈ 4.21 µM); in the test on Klebsiella pneumoniae [5] it was 0.25 µg/mL (≈ 0.526 µM); against Klebsiella pneumoniae [6], 0.25 µg/mL (≈ 0.526 µM). Moreover, the MIC came out at 0.5 µg/mL (≈ 1.05 µM) against Klebsiella pneumoniae [7]; 0.007 µg/mL (≈ 0.0147 µM) with Klebsiella pneumoniae [8]; 4 µg/mL (≈ 8.41 µM) with Klebsiella pneumoniae [9]; 0.007 µg/mL (≈ 0.0147 µM) against Klebsiella pneumoniae [10]; 0.007 µg/mL (≈ 0.0147 µM) against Klebsiella pneumoniae [11]; 0.007 µg/mL (≈ 0.0147 µM) in the test on Klebsiella pneumoniae [12]. Further, the MIC worked out at 0.015 µg/mL (≈ 0.0315 µM) with Klebsiella pneumoniae [13]; 0.25 µg/mL (≈ 0.526 µM) in the test on Klebsiella pneumoniae [14]; 0.007 µg/mL (≈ 0.0147 µM) in the test on Klebsiella pneumoniae [15]; 0.03 µg/mL (≈ 0.0631 µM) against Klebsiella pneumoniae [16]; 0.125 µg/mL (≈ 0.263 µM) in the test on Klebsiella pneumoniae [17].

Consider `CO/N=C(\C(=O)N[C@@H]1C(=O)N2C(C(=O)O)=C(COC(C)=O)CS[C@H]12)c1csc(N)n1` [CEFOTAXIME], for which the MIC against Klebsiella pneumoniae [1] was determined as 0.25 µg/mL (≈ 0.549 µM); against Klebsiella pneumoniae [2], 0.06 µg/mL (≈ 0.132 µM); in the test on Klebsiella pneumoniae [3], 0.25 µg/mL (≈ 0.549 µM); with Klebsiella pneumoniae [4], 256 µg/mL (≈ 562 µM); in the test with Klebsiella pneumoniae [5], 0.25 µg/mL (≈ 0.549 µM); against Klebsiella pneumoniae [6], 0.25 µg/mL (≈ 0.549 µM). Moreover, the MIC against Klebsiella pneumoniae [7] was determined as 0.25 µg/mL (≈ 0.549 µM); against Klebsiella pneumoniae [8] it was 0.06 µg/mL (≈ 0.132 µM); against Klebsiella pneumoniae [9], 256 µg/mL (≈ 562 µM); in the test on Klebsiella pneumoniae [10] it was 0.06 µg/mL (≈ 0.132 µM); against Klebsiella pneumoniae [11], 0.06 µg/mL (≈ 0.132 µM); in the test with Klebsiella pneumoniae [12], 0.06 µg/mL (≈ 0.132 µM). The MIC in the test with Klebsiella pneumoniae [13] was determined as 0.125 µg/mL (≈ 0.274 µM); with Klebsiella pneumoniae [14], 0.125 µg/mL (≈ 0.274 µM); in the test with Klebsiella pneumoniae [15] it was 0.125 µg/mL (≈ 0.274 µM); with Klebsiella pneumoniae [16], 128 µg/mL (≈ 281 µM); with Klebsiella pneumoniae [17], 128 µg/mL (≈ 281 µM).

`O=C(N[C@H](CO)[C@H](O)c1ccc([N+](=O)[O-])cc1)C(Cl)Cl` [CHLORAMPHENICOL]: the MIC came out at 128 µg/mL (≈ 396 µM) against Klebsiella pneumoniae [1]; 2 µg/mL (≈ 6.19 µM) in the test on Klebsiella pneumoniae [2]; 4 µg/mL (≈ 12.4 µM) in the test on Klebsiella pneumoniae [3]; 4 µg/mL (≈ 12.4 µM) in the test on Klebsiella pneumoniae [4]; 8 µg/mL (≈ 24.8 µM) against Klebsiella pneumoniae [5]; 128 µg/mL (≈ 396 µM) against Klebsiella pneumoniae [6]. Also, the MIC with Klebsiella pneumoniae [7] turned out to be 4 µg/mL (≈ 12.4 µM); in the test on Klebsiella pneumoniae [8], 128 µg/mL (≈ 396 µM); against Klebsiella pneumoniae [9] it was 128 µg/mL (≈ 396 µM); in the test on Klebsiella pneumoniae [10], 2 µg/mL (≈ 6.19 µM); in the test on Klebsiella pneumoniae [11] it was 2 µg/mL (≈ 6.19 µM); against Klebsiella pneumoniae [12] it was 4 µg/mL (≈ 12.4 µM). In addition, the MIC against Klebsiella pneumoniae [13] is 8 µg/mL (≈ 24.8 µM); in the test on Klebsiella pneumoniae [14], 2 µg/mL (≈ 6.19 µM); with Klebsiella pneumoniae [15] it was 128 µg/mL (≈ 396 µM); with Klebsiella pneumoniae [16], 2 µg/mL (≈ 6.19 µM); against Klebsiella pneumoniae [17] it was 128 µg/mL (≈ 396 µM).

For `CC(C)(O/N=C(\C(=O)N[C@@H]1C(=O)N2C(C(=O)[O-])=C(C[n+]3ccccc3)CS[C@H]12)c1csc(N)n1)C(=O)O` [CEFTAZIDIME], the MIC was found to be 0.125 µg/mL (≈ 0.229 µM) against Klebsiella pneumoniae [1]; 0.125 µg/mL (≈ 0.229 µM) in the test on Klebsiella pneumoniae [2]; 0.25 µg/mL (≈ 0.457 µM) with Klebsiella pneumoniae [3]; 32 µg/mL (≈ 58.5 µM) with Klebsiella pneumoniae [4]; 0.25 µg/mL (≈ 0.457 µM) against Klebsiella pneumoniae [5]; 0.25 µg/mL (≈ 0.457 µM) against Klebsiella pneumoniae [6]. Besides, the MIC in the test with Klebsiella pneumoniae [7] was found to be 0.125 µg/mL (≈ 0.229 µM); with Klebsiella pneumoniae [8] it was 0.25 µg/mL (≈ 0.457 µM); against Klebsiella pneumoniae [9], 32 µg/mL (≈ 58.5 µM); in the test on Klebsiella pneumoniae [10], 0.125 µg/mL (≈ 0.229 µM); against Klebsiella pneumoniae [11], 0.125 µg/mL (≈ 0.229 µM); in the test on Klebsiella pneumoniae [12], 0.125 µg/mL (≈ 0.229 µM). In addition, the MIC in the test on Klebsiella pneumoniae [13] is 0.25 µg/mL (≈ 0.457 µM); against Klebsiella pneumoniae [14], 0.125 µg/mL (≈ 0.229 µM); against Klebsiella pneumoniae [15], 0.25 µg/mL (≈ 0.457 µM); with Klebsiella pneumoniae [16], 16 µg/mL (≈ 29.3 µM); against Klebsiella pneumoniae [17], 32 µg/mL (≈ 58.5 µM).

Regarding `CO[C@@]1(NC(=O)Cc2cccs2)C(=O)N2C(C(=O)O)=C(COC(N)=O)CS[C@@H]21` [CEFOXITIN], the MIC against Klebsiella pneumoniae [1] came to 32 µg/mL (≈ 74.9 µM); against Klebsiella pneumoniae [2] it was 2 µg/mL (≈ 4.68 µM); in the test on Klebsiella pneumoniae [3], 32 µg/mL (≈ 74.9 µM); in the test on Klebsiella pneumoniae [4], 32 µg/mL (≈ 74.9 µM); against Klebsiella pneumoniae [5] it was 32 µg/mL (≈ 74.9 µM); in the test on Klebsiella pneumoniae [6], 32 µg/mL (≈ 74.9 µM). The MIC amounted to 32 µg/mL (≈ 74.9 µM) against Klebsiella pneumoniae [7]; 4 µg/mL (≈ 9.36 µM) in the test on Klebsiella pneumoniae [8]; 32 µg/mL (≈ 74.9 µM) against Klebsiella pneumoniae [9]; 2 µg/mL (≈ 4.68 µM) in the test on Klebsiella pneumoniae [10]; 2 µg/mL (≈ 4.68 µM) with Klebsiella pneumoniae [11]; 2 µg/mL (≈ 4.68 µM) in the test with Klebsiella pneumoniae [12]. Besides, the MIC against Klebsiella pneumoniae [13] turned out to be 8 µg/mL (≈ 18.7 µM); against Klebsiella pneumoniae [14] it was 16 µg/mL (≈ 37.4 µM); in the test on Klebsiella pneumoniae [15], 8 µg/mL (≈ 18.7 µM); against Klebsiella pneumoniae [16], 2 µg/mL (≈ 4.68 µM); in the test with Klebsiella pneumoniae [17] it was 8 µg/mL (≈ 18.7 µM).

With `C[C@H]1COc2c(N3CCN(C)CC3)c(F)cc3c(=O)c(C(=O)O)cn1c23.C[C@H]1COc2c(N3CCN(C)CC3)c(F)cc3c(=O)c(C(=O)O)cn1c23.O` [LEVOFLOXACIN], the MIC in the test with Klebsiella pneumoniae [2] amounted to 0.03 µg/mL; with Klebsiella pneumoniae [3] it was 0.015 µg/mL; against Klebsiella pneumoniae [4], 0.06 µg/mL; in the test on Klebsiella pneumoniae [7] it was 0.06 µg/mL; with Klebsiella pneumoniae [10], 0.06 µg/mL; with Klebsiella pneumoniae [11] it was 0.03 µg/mL. For the same molecule, the results for the MIC in the test on Klebsiella pneumoniae [12], in the test on Klebsiella pneumoniae [14] and in the test with Klebsiella pneumoniae [16] were 0.03 µg/mL, 0.06 µg/mL and 0.03 µg/mL, respectively.
